From PubChem BioAssay AID1996
Values after ≈ are worked out from the molar mass of the structure shown.

Conditions: buffer; pH 7.4; 200.0 µM

Structure (SMILES)	solubility kinetic
COC(=O)C(CO)Nc1ncnc2onc(-c3ccc(F)cc3)c12 (stereo unspecified)	> 49.8 µg/mL
Cc1[nH]c2ccc(C(=O)NCCN3CCOCC3)cc2c1C	> 45.2 µg/mL
N#CCc1ccc(NC(=O)Cn2c(=O)oc3ccccc32)cc1	6.7 µg/mL (≈ 21.8 µM)
CNC(=S)N1CCn2cccc2C1c1ccc(F)cc1 (stereo unspecified)	40.8 µg/mL (≈ 141 µM)
CCOC(=O)C1(C(F)(F)F)N=C(c2ccccc2F)OC(N(C)C)=N1 (stereo unspecified)	42.2 µg/mL (≈ 117 µM)
Cc1ccc(Cn2c(=O)n(C)c(=O)c3sccc32)cc1	1.2 µg/mL (≈ 4.19 µM)
O=C(Nc1ccc(C(F)(F)F)cn1)Nc1cccs1	0.8 µg/mL (≈ 2.78 µM)
Cc1cc(NC(=O)COc2ccc(F)c(Cl)c2)no1	4.8 µg/mL (≈ 16.9 µM)
NC(=O)c1sc2nc3c(cc2c1N)CCCCCC3	22.3 µg/mL (≈ 81 µM)
CC1Oc2ccccc2N(CC(=O)N2CCCC2)C1=O (stereo unspecified)	> 41.1 µg/mL
COc1cc(C)ccc1OCCON1C(=O)CCC1=O	> 41.9 µg/mL
C#CC(CC)(CC)NC(=O)c1ccc(Br)s1	18.6 µg/mL (≈ 62 µM)
CCOC(=O)c1cc(NC(=O)c2cccs2)ccc1N1CCOCC1	14.8 µg/mL (≈ 41.1 µM)
O=C(O)CC(NC(=O)c1ccco1)c1ccco1 (stereo unspecified)	> 37.4 µg/mL
NC(=O)c1ccc(NC(=O)Cc2cccs2)cc1	32.9 µg/mL (≈ 126 µM)
OCCNC(=S)Nc1ccc2c(c1)OCCO2	37 µg/mL (≈ 145 µM)
COc1ccc(CCC(=O)Nc2ccc3c(c2)OCO3)cc1OC	35.5 µg/mL (≈ 108 µM)
O=C(NCc1nc2ccccc2[nH]1)C1CCCCC1	> 38.6 µg/mL
CC(=O)c1cccc(NC(=O)CN(C)S(=O)(=O)c2ccccc2)c1	> 52 µg/mL
CCOC(=O)/C(C#N)=C/N1CCOCC1	> 31.5 µg/mL
O=C(O)c1c(NC(=O)N2CCOCC2)sc2c1CCCC2	> 46.6 µg/mL
O=C(NC1CCCCC1)c1ccc(-c2ccccc2F)o1	5 µg/mL (≈ 17.4 µM)
COc1ccc(CN2CCN(CC3CC3)CC2CCO)cc1C (stereo unspecified)	> 47.8 µg/mL
Cc1ccc(NC(=O)c2ccc(F)cc2F)cc1NS(C)(=O)=O	39.7 µg/mL (≈ 117 µM)
O=C(N/C(=C/c1ccccc1)C(=O)N1CCCCC1)c1ccco1	> 48.7 µg/mL

Structure (SMILES)	solubility kinetic
CCCCn1c(O)c(C(C)=NCc2cccnc2)c(=O)[nH]c1=O	> 47.5 µg/mL
O=C(NCc1ccccc1Cl)c1cc(C(=O)C2CC2)c[nH]1	< 0.3 µg/mL
O=C(CN1CCCCC1)Nc1ccccc1Oc1ccccc1	5.6 µg/mL (≈ 18 µM)
Cc1noc(C)c1COc1ccc2ccc(=O)oc2c1	11.5 µg/mL (≈ 42.4 µM)
COc1cc(OC)cc(C(=O)N[C@H](C(=O)NC2=NCCS2)C(C)C)c1	> 54.8 µg/mL
O=C(c1ccoc1)N1CCC(CO)(CCc2ccccc2)CC1	46 µg/mL (≈ 147 µM)
Cc1cccc([N+](=O)[O-])c1NC(=O)COC(=O)C1CCCO1 (stereo unspecified)	> 46.2 µg/mL
COc1ccccc1N1CCN(CCc2ccccc2)CC1	37.5 µg/mL (≈ 127 µM)
Cc1ccc2c(CC(=O)N3CCN(c4ccccc4)CC3)coc2c1	8.1 µg/mL (≈ 24.2 µM)
CN(Cc1cccs1)C(=O)c1ccc(Cl)c(S(=O)(=O)N2CCCCCC2)c1	14.1 µg/mL (≈ 33 µM)
CCN(CC)Cc1oc(-c2ccccc2)cc1C(=O)O	32.2 µg/mL (≈ 118 µM)
COc1ccccc1CNC(=O)CN1C(=O)NC2(CCCCCC2)C1=O	> 53.9 µg/mL
O=C(O)CSCc1nc2ccccc2[nH]1	31.7 µg/mL (≈ 143 µM)
O=C(COC(=O)c1ccccc1F)NC1CC1	> 35.6 µg/mL
Cc1ccc(N2CCN(S(=O)(=O)N3CCCCC3)CC2)cc1C	1.8 µg/mL (≈ 5.33 µM)
CN(C)CCOC1c2ccccc2CSc2ccccc21.O=CO (stereo unspecified)	46.7 µg/mL
Cc1ccc(NC2=NC(c3ccc(F)cc3)n3c(nc(C)cc3=O)N2)cc1 (stereo unspecified)	5 µg/mL (≈ 13.8 µM)
C=CCn1c(COc2ccc(OC)cc2)nc2ccccc21	26.8 µg/mL (≈ 91 µM)
CCS(=O)(=O)N1CCN(C(=O)c2cccc3ccccc23)CC1	> 49.9 µg/mL
COCCCn1c(=O)c2sccc2n(Cc2ccc(C)cc2)c1=O	< 0.4 µg/mL
OC(CNCCc1c[nH]c2ccccc12)c1ccccc1 (stereo unspecified)	37 µg/mL (≈ 132 µM)
c1ccc(COCC2CCNCC2)cc1	> 30.8 µg/mL
CCOC(=O)C1C(c2ccccc2)NC(=S)NC1(C)O (stereo unspecified)	41.6 µg/mL (≈ 141 µM)
Cc1ccc(C)c(OCC(=O)N2CCc3ccccc3C2)c1	22.3 µg/mL (≈ 75.5 µM)
Cc1cc(OCC(=O)NCCN2CCOCC2)cc(C)c1Cl	> 49 µg/mL

Structure (SMILES)	solubility kinetic
CC(=O)N(Cc1cccs1)Cc1cc2cc(C)c(C)cc2nc1Cl	4.3 µg/mL (≈ 12 µM)
O=C(NCc1cccnc1)/C(=C/c1ccccc1)NC(=O)c1ccccc1	> 53.6 µg/mL
N#Cc1c(-c2ccc([N+](=O)[O-])cc2)nc2n(c1=O)CCS2	14.7 µg/mL (≈ 49 µM)
O=C(NC12CC3CC(CC(C3)C1)C2)c1cccnc1Cl	22.3 µg/mL (≈ 76.7 µM)
O=C(NCCCNC(=O)c1ccccc1Cl)c1cnccn1	43.5 µg/mL (≈ 136 µM)
Cc1nc(SCCc2ccccc2)[nH]c(=O)c1C	10.9 µg/mL (≈ 41.9 µM)
CC(=O)c1sc(NC(=O)c2ccc(F)cc2)nc1-c1ccccc1	< 0.4 µg/mL
O=C1CSC(c2ccccc2[N+](=O)[O-])N1c1cccc(F)c1 (stereo unspecified)	12.9 µg/mL (≈ 40.5 µM)
Cc1noc(NS(=O)(=O)c2ccc(NC(=O)c3ccccc3NS(=O)(=O)c3ccc(F)cc3)cc2)c1C	> 81.7 µg/mL
CC(C)c1ccc(C(O)c2nc3ccccc3n2C)cc1 (stereo unspecified)	10.3 µg/mL (≈ 36.7 µM)
COc1ccc(C)cc1NC(=S)N1CC(C)OC(C)C1 (stereo unspecified)	> 44.2 µg/mL
C=CCn1cnc2c(oc3ccccc32)c1=O	> 33.9 µg/mL
CC(C)[C@H](NS(=O)(=O)c1ccccc1)C(=O)OCC(=O)NC1CCCCC1	> 59.5 µg/mL
O=C(Nc1ccc2nc3n(c(=O)c2c1)CCCC3)c1ccccc1F	48 µg/mL (≈ 142 µM)
CCN(C(=O)CN1CCCCCC1)c1c(N)n(Cc2ccccc2)c(=O)[nH]c1=O	> 59.9 µg/mL
COc1cccc(-n2cn[nH]c2=S)c1	> 31.1 µg/mL
Nc1nc2ccc(NC(=O)c3ccco3)cc2s1	> 38.9 µg/mL
CC(C)(C)c1ccc(C(CC(=O)O)NC(=O)CSc2ccccc2)cc1 (stereo unspecified)	> 55.7 µg/mL
O=C(NCCN1CCCCC1)Nc1ccc([N+](=O)[O-])cc1	> 43.9 µg/mL
CCNC(=O)NC(=O)CN(C)c1ccccc1	> 35.3 µg/mL
CCc1cc(C(=O)c2ccc(OC)cc2)c(NC(=O)CCC(=O)O)s1	> 54.2 µg/mL
O=C(N/C=C/c1ccco1)Nc1cccc(Cl)c1	31.3 µg/mL (≈ 119 µM)
COC(=O)c1cccc(CSC(=S)N2CCCC2)c1	3.6 µg/mL (≈ 12.2 µM)
Cc1ccc(NC(=O)C=NOCC(=O)Nc2cc(C)cc(C)c2)cc1	3.5 µg/mL (≈ 10.3 µM)
CCOC(=O)c1cnc2c(C)cccc2c1Nc1cccc(C(=O)O)c1.Cl	> 58 µg/mL

Structure (SMILES)	solubility kinetic
COc1ccc(CCC(=O)OCC(=O)Nc2sccc2C#N)cc1	22.9 µg/mL (≈ 66.5 µM)
Cc1ccc2[nH]c(C(=O)N3CCC(C(N)=O)CC3)cc2c1	> 42.8 µg/mL
O=C(CSc1ncnc2ccccc12)Nc1ccc2c(c1)OCCO2	1.3 µg/mL (≈ 3.68 µM)
O=C(CCCOc1ccccc1)Nc1ccc(Cl)c(S(=O)(=O)N2CCOCC2)c1	25.7 µg/mL (≈ 58.6 µM)
Nc1nc(Nc2ccccc2)nc(NCCO)c1[N+](=O)[O-]	38 µg/mL (≈ 131 µM)
O=[N+]([O-])c1ccc(S(=O)(=O)c2ccccc2)nc1	> 39.6 µg/mL
O=C(Nc1cc(S(=O)(=O)N2CCOCC2)ccc1Cl)c1cc([N+](=O)[O-])ccc1Cl	2.8 µg/mL (≈ 6.08 µM)
COC(=O)c1sccc1-n1cc(C#N)c(=O)n(C)c1=O	> 43.7 µg/mL
Cc1ccc(S(=O)(=O)CC(=O)N2CCOCC2)cc1	> 42.5 µg/mL
CN(C)c1ccc(/C=N/OC(=O)Nc2ccccc2)cc1	11 µg/mL (≈ 38.8 µM)
CCCN1C2CCCC1CC(NC(=O)c1cccc([N+](=O)[O-])c1)C2 (stereo unspecified)	> 49.7 µg/mL
COc1cc(CN2CCCCCC2)cc(OC)c1	30.6 µg/mL (≈ 123 µM)
O=C(NCc1cccs1)c1cnc(Cl)c(Cl)c1	> 43.1 µg/mL
Cc1cc(NC(=O)COC(=O)c2ccc(C)c(C)c2)no1	3.7 µg/mL (≈ 12.8 µM)
CCN(CC)CCCN=C(N)N.O=S(=O)(O)O	24 µg/mL
O=C(COC(=O)c1cc(=O)c2ccccc2o1)NCC1CCCCC1	33 µg/mL (≈ 96.1 µM)
Cc1ccc(C)c(OCCCN2CCNCC2)c1.Cl	39.3 µg/mL
CCOc1ccccc1Nc1nnc(SCC(=O)NC2CCS(=O)(=O)C2)s1 (stereo unspecified)	> 64.3 µg/mL
O=C(NCCc1ccc([N+](=O)[O-])cc1)c1ccccc1	14.2 µg/mL (≈ 52.5 µM)
Cc1nnc(SCC(=O)NCC2CCCO2)n1Cc1ccccc1 (stereo unspecified)	> 52 µg/mL
COc1ccc(OCC(=O)NC2CCCc3ccccc32)cc1 (stereo unspecified)	42.4 µg/mL (≈ 136 µM)
CN(Cc1ccccc1)C(=O)c1ccc(S(=O)(=O)N(C)c2ccccc2)cc1	26.1 µg/mL (≈ 66.2 µM)
O=C(CNC(=O)c1ccc(Br)cc1)NCc1cccnc1	49.3 µg/mL (≈ 142 µM)
NC(=S)NNC(=O)COc1ccccc1O	> 36.2 µg/mL
CCOC(=O)C1CCCN(C(=S)NC2CCCCC2)C1 (stereo unspecified)	> 44.8 µg/mL

Structure (SMILES)	solubility kinetic
O=c1c(-c2ccccc2)c(O)c2ccccc2n1-c1ccccc1	> 47 µg/mL
Cc1cnc(NC(=O)c2ccc3ncsc3c2)s1	3.5 µg/mL (≈ 12.7 µM)
COc1ccc(NC(=O)c2cccc(Oc3ccccc3)c2)cn1	8.8 µg/mL (≈ 27.5 µM)
COc1ccc(/C(C)=N/NC(=O)CNC(=O)c2cccnc2)cc1	> 49 µg/mL
O=C1NC(c2cccc(Cl)c2)Oc2ccccc21 (stereo unspecified)	1.2 µg/mL (≈ 4.62 µM)
O=C(O)c1cccc(N2C(=O)c3cccc4cccc(c34)C2=O)c1	> 47.6 µg/mL
COc1ccc(CN2C(=O)CNC2=S)cc1	> 35.4 µg/mL
CC(C)c1ccccc1OCCCCCN1CCOCC1	25.8 µg/mL (≈ 88.5 µM)
O=C(O)CC1(CC(=O)Nc2ccc3c(c2)OCCCO3)CCCCC1	50.6 µg/mL (≈ 146 µM)
CCn1c(=O)c2c(nc(SCC(=O)NC3CCCC3)n2C)n(C)c1=O	> 54.8 µg/mL
Cc1ccc([N+](=O)[O-])cc1NC(=O)/C=C/C(=O)O	> 37.5 µg/mL
C=CCn1c([O-])c(C(C)=O)c(=O)[nH]c1=O.C[NH+](C)C	> 40.4 µg/mL
Cc1cc(C)cc(NC(=O)CN2CCN(C(=O)C3CCCO3)CC2)c1 (stereo unspecified)	> 51.8 µg/mL
CN1CCN(C(=O)CNC(=O)c2cccs2)CC1	> 40.1 µg/mL
CCCCOc1ccc(CSC(=N)N)cc1Cl.Cl	40.6 µg/mL
O=C(O)c1csc(-c2ccc(Cl)cc2)n1	> 36 µg/mL
Cc1ccc(NC(=O)COC(=O)Cc2ccccc2)cc1S(=O)(=O)N1CCOCC1	58.1 µg/mL (≈ 134 µM)
Cc1cccc(N2CC(C(=O)NC3CCCCCC3)CC2=O)c1C (stereo unspecified)	> 49.3 µg/mL
O=C(Nc1cccc([N+](=O)[O-])c1)N1CCc2ccccc2C1	28.6 µg/mL (≈ 96.2 µM)
Cn1ccsc1=NC(=O)c1ccc(Cl)c([N+](=O)[O-])c1	0.5 µg/mL (≈ 1.68 µM)
CCN(CC)c1cc(Cl)c2nonc2c1N	8.5 µg/mL (≈ 35.3 µM)
